Values of other authors, collected in PMC7029871, “Development and validation of a sensitive LC-MS/MS method for the quantitation of IMB-YH-4py5-2H, an antituberculosis candidate, and its application to the pharmacokinetic study” (PLoS ONE, 2020).
Where two headings read alike, the source gives them in different places.

Test system: Mycobacterium tuberculosis strains
Conditions: cited from earlier work

Structure (SMILES)	MICs (sensitive and resistant M. tuberculosis strains, method and reference not given) [µg/mL]	MICs (drug-sensitive and drug-resistant M. tuberculosis strains) [µg/mL]
CN(C)C(=O)/C=C/C(=O)c1ccc(-c2ccncc2)cc1.Cl [IMB-YH-4py5-2H, (E)-N,N-dimethyl-4-oxo-4-(4-(pyridin-4-yl)phenyl)but-2-enamide hydrochloride]	0.25 to 0.5	–
COC(=O)/C=C/C(=O)c1ccc(OC)cc1 [YH-8, (E)-Methyl-4-aryl-4-oxabut-2-enoate, reference compound]	–	0.25 to 1
